Assay: xn = mol fraction of the nth substance listed
Conditions: 101 kPa, Liquid; for speed of sound: Sing-around technique in a fixed-path interferometer

CCC(C)Cl (stereo not drawn) [2-chlorobutane] + CC(C)OC(C)C
Conditions | mass density [kg/m3] | speed of sound [m/s]
283.15 K, x1 = 0.0519 | 740.159 | 1068.8
283.15 K, x1 = 0.0988 | 745.897 | 1071.7
283.15 K, x1 = 0.2006 | 758.792 | 1078
283.15 K, x1 = 0.3211 | 774.756 | 1085.4
283.15 K, x1 = 0.4201 | 788.575 | 1091.5
283.15 K, x1 = 0.532 | 804.971 | 1098.5
283.15 K, x1 = 0.6244 | 819.223 | 1104.3
283.15 K, x1 = 0.726 | 835.602 | 1110.7
283.15 K, x1 = 0.8163 | 850.907 | 1116.3
283.15 K, x1 = 0.8817 | 862.411 | 1120.4
283.15 K, x1 = 0.9634 | 877.39 | 1125.5
288.15 K, x1 = 0.0519 | 734.981 | 1046.5
288.15 K, x1 = 0.0988 | 740.712 | 1049.4
288.15 K, x1 = 0.2006 | 753.569 | 1055.8
288.15 K, x1 = 0.3211 | 769.483 | 1063.4
288.15 K, x1 = 0.4201 | 783.251 | 1069.7
288.15 K, x1 = 0.532 | 799.602 | 1076.9
288.15 K, x1 = 0.6244 | 813.814 | 1082.9
288.15 K, x1 = 0.726 | 830.144 | 1089.5
288.15 K, x1 = 0.8163 | 845.414 | 1095.4
288.15 K, x1 = 0.8817 | 856.901 | 1099.6
288.15 K, x1 = 0.9634 | 871.819 | 1104.9
293.15 K, x1 = 0.0519 | 729.792 | 1024
293.15 K, x1 = 0.0988 | 735.485 | 1027.1
293.15 K, x1 = 0.2006 | 748.303 | 1033.7
293.15 K, x1 = 0.3211 | 764.161 | 1041.4
293.15 K, x1 = 0.4201 | 777.889 | 1047.9
293.15 K, x1 = 0.532 | 794.197 | 1055.3
293.15 K, x1 = 0.6244 | 808.369 | 1061.5
293.15 K, x1 = 0.726 | 824.657 | 1068.3
293.15 K, x1 = 0.8163 | 839.877 | 1074.4
293.15 K, x1 = 0.8817 | 851.332 | 1078.7
293.15 K, x1 = 0.9634 | 866.214 | 1084.3
298.15 K, x1 = 0.0519 | 724.535 | 1001.8
298.15 K, x1 = 0.0988 | 730.22 | 1004.9
298.15 K, x1 = 0.2006 | 742.995 | 1011.5
298.15 K, x1 = 0.3211 | 758.802 | 1019.4
298.15 K, x1 = 0.4201 | 772.485 | 1026.1
298.15 K, x1 = 0.532 | 788.75 | 1033.8
298.15 K, x1 = 0.6244 | 802.882 | 1040.2
298.15 K, x1 = 0.726 | 819.123 | 1047.2
298.15 K, x1 = 0.8163 | 834.307 | 1053.5
298.15 K, x1 = 0.8817 | 845.724 | 1057.9
298.15 K, x1 = 0.9634 | 860.57 | 1063.7
303.15 K, x1 = 0.0519 | 719.276 | 979.57
303.15 K, x1 = 0.0988 | 724.919 | 982.73
303.15 K, x1 = 0.2006 | 737.649 | 989.5
303.15 K, x1 = 0.3211 | 753.411 | 997.66
303.15 K, x1 = 0.4201 | 767.06 | 1004.4
303.15 K, x1 = 0.532 | 783.263 | 1012.3
303.15 K, x1 = 0.6244 | 797.355 | 1018.8
303.15 K, x1 = 0.726 | 813.555 | 1026.1
303.15 K, x1 = 0.8163 | 828.698 | 1032.6
303.15 K, x1 = 0.8817 | 840.084 | 1037.2
303.15 K, x1 = 0.9634 | 854.895 | 1043.2
308.15 K, x1 = 0.0519 | 713.939 | 957.51
308.15 K, x1 = 0.0988 | 719.569 | 960.7
308.15 K, x1 = 0.2006 | 732.261 | 967.56
308.15 K, x1 = 0.3211 | 747.973 | 975.92
308.15 K, x1 = 0.4201 | 761.571 | 982.81
308.15 K, x1 = 0.532 | 777.737 | 990.84
308.15 K, x1 = 0.6244 | 791.784 | 997.54
308.15 K, x1 = 0.726 | 807.944 | 1005
308.15 K, x1 = 0.8163 | 823.046 | 1011.6
308.15 K, x1 = 0.8817 | 834.402 | 1016.4
308.15 K, x1 = 0.9634 | 849.179 | 1022.6
313.15 K, x1 = 0.0519 | 708.573 | 935.64
313.15 K, x1 = 0.0988 | 714.181 | 938.87
313.15 K, x1 = 0.2006 | 726.833 | 945.88
313.15 K, x1 = 0.3211 | 742.484 | 954.34
313.15 K, x1 = 0.4201 | 756.049 | 961.42
313.15 K, x1 = 0.532 | 772.166 | 969.67
313.15 K, x1 = 0.6244 | 786.18 | 976.57
313.15 K, x1 = 0.726 | 802.287 | 984.26
313.15 K, x1 = 0.8163 | 817.349 | 991.15
313.15 K, x1 = 0.8817 | 828.683 | 996.09
313.15 K, x1 = 0.9634 | 843.442 | 1002.5

CCCCCl [1-chlorobutane] + CC(C)OC(C)C
Conditions | mass density [kg/m3] | speed of sound [m/s]
283.15 K, x1 = 0.0466 | 740.095 | 1070.9
283.15 K, x1 = 0.0991 | 747.139 | 1076.6
283.15 K, x1 = 0.1918 | 759.833 | 1087
283.15 K, x1 = 0.32 | 778.726 | 1101.5
283.15 K, x1 = 0.4199 | 793.339 | 1112.3
283.15 K, x1 = 0.516 | 808.586 | 1123.3
283.15 K, x1 = 0.623 | 826.434 | 1135.5
283.15 K, x1 = 0.7154 | 842.63 | 1146.3
283.15 K, x1 = 0.8157 | 861.003 | 1158.2
283.15 K, x1 = 0.9098 | 879.099 | 1169.3
283.15 K, x1 = 0.9559 | 888.28 | 1174.9
288.15 K, x1 = 0.0466 | 734.99 | 1048.6
288.15 K, x1 = 0.0991 | 741.966 | 1054.3
288.15 K, x1 = 0.1918 | 754.629 | 1064.7
288.15 K, x1 = 0.32 | 773.471 | 1079.4
288.15 K, x1 = 0.4199 | 788.055 | 1090.3
288.15 K, x1 = 0.516 | 803.274 | 1101.5
288.15 K, x1 = 0.623 | 821.073 | 1114
288.15 K, x1 = 0.7154 | 837.246 | 1125
288.15 K, x1 = 0.8157 | 855.588 | 1137
288.15 K, x1 = 0.9098 | 873.635 | 1148.4
288.15 K, x1 = 0.9559 | 882.81 | 1154.2
293.15 K, x1 = 0.0466 | 729.792 | 1026.2
293.15 K, x1 = 0.0991 | 736.75 | 1032
293.15 K, x1 = 0.1918 | 749.383 | 1042.5
293.15 K, x1 = 0.32 | 768.192 | 1057.3
293.15 K, x1 = 0.4199 | 782.731 | 1068.4
293.15 K, x1 = 0.516 | 797.924 | 1079.7
293.15 K, x1 = 0.623 | 815.68 | 1092.4
293.15 K, x1 = 0.7154 | 831.821 | 1103.6
293.15 K, x1 = 0.8157 | 850.133 | 1115.9
293.15 K, x1 = 0.9098 | 868.142 | 1127.6
293.15 K, x1 = 0.9559 | 877.303 | 1133.4
298.15 K, x1 = 0.0466 | 724.56 | 1003.8
298.15 K, x1 = 0.0991 | 731.492 | 1009.7
298.15 K, x1 = 0.1918 | 744.091 | 1020.2
298.15 K, x1 = 0.32 | 762.854 | 1035.2
298.15 K, x1 = 0.4199 | 777.351 | 1046.6
298.15 K, x1 = 0.516 | 792.506 | 1058
298.15 K, x1 = 0.623 | 810.177 | 1071
298.15 K, x1 = 0.7154 | 826.321 | 1082.3
298.15 K, x1 = 0.8157 | 844.587 | 1094.8
298.15 K, x1 = 0.9098 | 862.556 | 1106.6
298.15 K, x1 = 0.9559 | 871.691 | 1112.7
303.15 K, x1 = 0.0466 | 719.283 | 981.56
303.15 K, x1 = 0.0991 | 726.204 | 987.54
303.15 K, x1 = 0.1918 | 738.777 | 998.37
303.15 K, x1 = 0.32 | 757.526 | 1013.6
303.15 K, x1 = 0.4199 | 771.984 | 1024.8
303.15 K, x1 = 0.516 | 787.119 | 1036.5
303.15 K, x1 = 0.623 | 804.761 | 1049.6
303.15 K, x1 = 0.7154 | 820.882 | 1061.1
303.15 K, x1 = 0.8157 | 839.124 | 1073.8
303.15 K, x1 = 0.9098 | 857.076 | 1085.9
303.15 K, x1 = 0.9559 | 866.204 | 1092
308.15 K, x1 = 0.0466 | 713.967 | 959.5
308.15 K, x1 = 0.0991 | 720.87 | 965.54
308.15 K, x1 = 0.1918 | 733.414 | 976.43
308.15 K, x1 = 0.32 | 752.126 | 991.71
308.15 K, x1 = 0.4199 | 766.553 | 1003.3
308.15 K, x1 = 0.516 | 781.656 | 1015
308.15 K, x1 = 0.623 | 799.266 | 1028.4
308.15 K, x1 = 0.7154 | 815.358 | 1040.1
308.15 K, x1 = 0.8157 | 833.567 | 1053
308.15 K, x1 = 0.9098 | 851.486 | 1065.3
308.15 K, x1 = 0.9559 | 860.595 | 1071.5
313.15 K, x1 = 0.0466 | 708.604 | 937.74
313.15 K, x1 = 0.0991 | 715.486 | 943.72
313.15 K, x1 = 0.1918 | 728.002 | 954.72
313.15 K, x1 = 0.32 | 746.649 | 970.22
313.15 K, x1 = 0.4199 | 761.063 | 981.83
313.15 K, x1 = 0.516 | 776.136 | 993.77
313.15 K, x1 = 0.623 | 793.704 | 1007.3
313.15 K, x1 = 0.7154 | 809.769 | 1019.1
313.15 K, x1 = 0.8157 | 827.935 | 1032.2
313.15 K, x1 = 0.9098 | 845.816 | 1044.8
313.15 K, x1 = 0.9559 | 854.913 | 1051.1
